In one data set the test system is B16 melanoma. The experiment in a line: Anti-tumor activity in B16 melanoma mouse model. Type of data set: in vivo. Conditions: B16 mice, i.p.; antibody drugs 150 μg, D18 25 μg per mouse; dosing to day 21. From the text:
(§1) A. Treatment with ADC HE-S2, single administration of anti-PD-L1 antibody, D18, or anti-PD-L1 THIOMAB, and anti-PD-L1 antibody/D18 combined administration for inhibitory activity against mouse MC38 tumor growth. B. Whole animal survival study. The ordinate of the curve represents the percentage of tumor-bearing mice that remained alive after different days, and the abscissa thereof represents the number of experimental days. C. Treatment with ADC HE-S2, single administration of anti-PD-L1 antibody, D18, or anti-PD-L1 THIOMAB, and anti-PD-L1 antibody/D18 combined administration for inhibitory activity against mouse MC38 tumor growth. Student's t test was used to compare significant differences between the groups, and p<0.001 is represented by ***.
B16 melanoma is a tumor with low PD-L1 level and certain drug resistance to PD-1/PD-L1 blocking treatment. As a result, as expected by the inventors, the inhibitory effect of each drug on B16 melanoma was reduced relative to the MC38 tumor.
(§2) Dosage: Antibody drugs, administered 150 μg per mouse for each time, and D18, administered 25 μg per mouse for each time. - means no administration on the day. * Only mice with MC38 tumor model were allowed to be administered until the 24th day, and mice with B16 tumor model were no longer administered after the 21st day.

The subject of the next data set is MC38 tumor. The experiment in a line: Anti-tumor activity and survival in MC38 mouse tumor model. Type of data set: in vivo. Conditions: for inhibitory activity against MC38 tumor growth: MC38 mice, i.p., antibody drugs 150 μg per mouse, D18 25 μg per mouse, schedule Table 1.
Description: as §1
To verify the anti-cancer activity of ADC HE-S2, the inventors first made a mouse model with MC38. After the tumor was loaded, a visible tumor could be observed on the mouse surface for about one week. When the mean tumor tissue volume of the mice reached 100 mm^3, the mice were randomly grouped as follows according to the final type of drug administered: IgG isotype control antibody group (abbreviated as IgG), anti-PD-L1 antibody group (anti-PD-L1), anti-PD-L1 THIOMAB group (Thiomab), D18 group (D18), D18/anti-PD-L1 antibody combination treatment group (anti-PD-L1 & D18), and ADC HE-S2 group (ADC HE-S2), with 7-8 mice per group. The IgG isotype control antibody group, the anti-PD-L1 antibody (i.e., avelumab as described in Example 2) group, and the anti-PD-L1 THIOMAB (i.e., mutant antibody prepared in Example 2) group were administered twice a week via intraperitoneal injection of 150 μg per mouse for each time. The D18 group was administered twice a week via intraperitoneal injection of 25 μg per mouse for each time. In the D18/anti-PD-L1 antibody combination treatment group, the anti-PD-L1 antibody was dosed twice a week, 150 μg per mouse for each time; the D18 was dosed […], 25 μg per mouse for each time; in the ADC HE-S2 group, ADC HE-S2 was dosed once a week via intraperitoneal injection of 150 μg per mouse for each time; the anti-PD-L1 antibody was dosed once a week, staggered from the administration of the ADC, via intraperitoneal injection of 150 μg per mouse for each time.
as §2

Data set [1] in a line: Effect of drug treatment on body weight of healthy mice. Type of data set: in vivo, mouse. The note with it: antibody drugs 150 μg, D18 25 μg per dose. The method, then: Mice were treated with ADC HE-S2, anti-PD-L1 antibody+D18 in combination, anti-PD-L1 antibody alone, D18 alone, and isotype IgG, and their body weight variations were recorded. The time of administration for each drug is indicated by the arrow. Student's t test was used to compare significance differences between groups, wherein p<0.05 is represented by *. p<0.01 is represented by **, and no significance difference is represented by ns.
Then, the inventors examined the effect of each group of drug treatment on the body weight of mice in a mouse model to determine the toxic and side effects of the drugs used, and the results are shown in FIG. 17. Healthy mice were divided into an ADC group, an anti-PD-L1 antibody+D18 group, an anti-PD-L1 antibody group, a D18 group and an IgG group according to the administration, with 5 mice per group. The mode and dose of administration for each group of mice were the same as those in the mouse tumor model experiment: in the ADC group, ADC HE-S2 was dosed once a week, and the anti-PD-L1 antibody was […], 150 μg for each time; D18 was dosed once a week, 25 μg for each time; the anti-PD-L1 antibody and the IgG isotype antibody were dosed twice a week, 150 μg for each time.

Another data set addresses murine PD-L1 (Mus musculus, UniProt Q9EP73). The note with it: Deng et al., 2016; cited from earlier work.

murine PD-L1, sequence (Q9EP73 19-290): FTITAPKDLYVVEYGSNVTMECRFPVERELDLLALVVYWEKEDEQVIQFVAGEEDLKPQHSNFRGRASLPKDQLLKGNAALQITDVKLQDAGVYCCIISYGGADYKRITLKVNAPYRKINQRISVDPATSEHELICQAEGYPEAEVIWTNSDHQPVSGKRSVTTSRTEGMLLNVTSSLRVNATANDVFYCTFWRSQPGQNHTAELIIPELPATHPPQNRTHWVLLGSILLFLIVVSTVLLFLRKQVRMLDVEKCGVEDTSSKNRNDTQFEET

Regarding `CCCCNc1nc(N)nc2ccc(Cc3ccc(CN(C)C)cc3)nc12` [D18, N^4-butyl-6-(4-((dimethylamino)methyl)benzyl)pyridine[3,2-d]pyriproxyfen-2,4-diamine], in the data set on B16 melanoma, the “inhibitory effect on B16 melanoma” value is recorded as “almost comparative to that of the IgG isotype antibody”. The “inhibitory activity against MC38 tumor growth” value in the data set with MC38 tumor was “slightly superior to the efficacy of the IgG isotype antibody”. In addition, in the data set on MC38 tumor (until day 70), the “survival rate of mice” value is reported as 1/8. Moreover, the “body weight change of the mice after administration” value in data set [1] was “some decreases in body weight”.

Regarding “anti-PD-L1 antibody: fully humanized IgG1 type monoclonal anti-PD-L1 antibody drug avelumab [reference compound]”, the “inhibitory effect on B16 melanoma” value with B16 melanoma is “almost comparative to that of the IgG isotype antibody”. For the same compound, the “inhibitory activity against MC38 tumor growth” value in the data set on MC38 tumor is on record as “slightly superior to the efficacy of the IgG isotype antibody”. Further, the “body weight change of the mice after administration” value in data set [1] is recorded as “almost consistent with that of the blank control IgG group”. For the same compound, the “cross-reaction with murine PD-L1” value with murine PD-L1 was “cross-react with murine PD-L1”.
